Measurements published in US20220288115A1, “ORAL DISODIUM PYR[…] USE IN REDUCING CALCIFICATION” (priority 2019, published 2022).

Tests used:
[1] = single oral dose, PXE patient, fasting baseline 0.7 μmol/l (FIG. 2)
Source text: Legend indicates the dose (per kg of body weight) and time of PPi consumption.

[2] = human subjects
Source text: FIG. 1: Plasma bioavailability of PPi after oral disodium PPi and after oral tetrasodium PPI. Results of different subjects (#) are shown, as well as AUC and AUC/mg PPi.
In this experiment PPI bioavailability was compared between tetrasodium PPi and disodium PPi in different human subjects (as indicated by # in FIG. 1).

[3] = three months after the operation; 44 mg/kg per oral once daily
Method: As PXE patients have an increased risk of spontaneous gastrointestinal bleeding, aspirin medication was not used preoperatively. […] With the present therapy the patients absorbs extra 0.8 mg sodium and is informed to decrease daily salt intake.
Aspirin and PPi therapy were continued unaltered.

O=P([O-])([O-])OP(=O)(O)O.[Na+].[Na+] [disodium pyrophosphate]
time plasma pyrophosphate stayed in the normal fasting range of healthy controls (0.8-1.6 μmol/l) [1]: 180 min | PPi bioavailability in plasma after oral uptake ([2]; compared with oral tetrasodium PPi (FIG. 1)): much better bioavailable | area under the curve (AUC) and calculated AUC/mg PPi of plasma PPi ([2]; oral, compared with tetrasodium PPi): higher | re-stenosis on computed tomography angiography (CTA) (one year postoperatively): without signs of re-stenosis | Walking Impairment Questionnaire (WIQ) score (one year postoperatively, baseline 0.19, 44 mg/kg per oral once daily): 0.89 | re-stenosis in the operated area on MRA (three months after the operation): no re-stenosis | safety laboratory tests [3]: normal
